Results published in patent US12384753B2, “17-beta-hydroxysteroid dehydrogenase type 13 inhibitors and methods of use thereof” (Enanta Pharmaceuticals, Inc., priority 2021, dated 2025).

biological target: Recombinant human HSD17B13 (Homo sapiens (Human), UniProt Q7Z5P4); assay: HSD17B13 rapid-fire mass spectrometry assay (RF/MS assay); type: biochemical; conditions: inhibition of HSD17B13; LTB4 10 μM, NAD+ 0.5 mM, RT 3 h; IC50 ranges A-E
Method in brief: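 Sf9-expressed human HSD17B13 (80 nM) with 10 μM LTB4 and 0.5 mM NAD+, incubated with compound (0–100 μM) for 3 h at RT in Tris pH 7.5/BSA/Tween-20. After formic acid quench, LTB4 conversion to 12-oxo-LTB4 measured by RapidFire MS/MS. IC50 from normalised residual activity, duplicates.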

Recombinant human HSD17B13, sequence (Q7Z5P4 20-300): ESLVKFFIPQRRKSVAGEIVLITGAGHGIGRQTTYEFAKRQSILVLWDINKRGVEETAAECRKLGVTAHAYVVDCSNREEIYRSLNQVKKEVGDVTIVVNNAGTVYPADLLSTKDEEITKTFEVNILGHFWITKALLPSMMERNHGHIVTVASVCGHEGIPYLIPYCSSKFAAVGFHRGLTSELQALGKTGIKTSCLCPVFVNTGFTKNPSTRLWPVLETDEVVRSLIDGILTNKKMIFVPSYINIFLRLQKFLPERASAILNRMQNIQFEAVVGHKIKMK

Structure (SMILES)	IC50
COc1cc(C(=O)O)c(F)cc1NS(=O)(=O)c1csc(-c2ccc(-c3ccc(C(F)(C(F)(F)F)C(F)(F)F)cc3)cc2C(F)(F)F)n1 [Example 795]	< 100 nM
COc1cc(C(=O)O)c(F)cc1NS(=O)(=O)c1csc(-c2ccc(-c3ccc(-c4ccc(C5(C(F)(F)F)CC5)cc4)cc3C(F)(F)F)cc2C(F)(F)F)n1 [Example 796]	100 to 500 nM
COc1cc(C(=O)O)c(F)cc1NS(=O)(=O)c1csc(-c2ccc(-c3ccc(-c4ccc(C(F)(C(F)(F)F)C(F)(F)F)cc4)cc3C(F)(F)F)cc2C(F)(F)F)n1 [Example 797]	100 to 500 nM
COc1cc(C(=O)O)c(F)cc1NS(=O)(=O)c1ccc2sc(-c3ccc([C@H]4CC[C@H](C(C)C)CC4)cc3C(F)(F)F)nc2c1 [Example 798]	100 to 500 nM
COc1cc(C(=O)O)c(F)cc1NS(=O)(=O)c1csc(-c2ccc(C3=CCC(C(C)C)CC3)c(OC)c2F)n1 (stereo not drawn) [Example 799]	< 100 nM
COc1cc(C(=O)O)c(F)cc1NS(=O)(=O)c1csc(C2=CCC(C(C)C)CC2)n1 (stereo not drawn) [Example 800]	500 to 1000 nM
COc1cc(C(=O)O)c(F)cc1NS(=O)(=O)c1csc(-c2ccc([C@H]3CC[C@@H](C(C)C)CC3)c(OC)c2F)n1 [Example 802]	< 100 nM
COc1cc(C(=O)O)c(F)cc1NS(=O)(=O)c1csc(-c2ccc([C@H]3CC[C@H](C(C)C)CC3)c(OC)c2F)n1 [Example 803]	< 100 nM
COc1cc(C(=O)O)c(F)cc1NS(=O)(=O)c1csc(-c2ccc(-c3ccc(-c4ccc(C5=CCC(C(C)(C)C)CC5)cc4C(F)(F)F)cc3C(F)(F)F)cc2C(F)(F)F)n1 (stereo not drawn) [Example 804]	1000 to 100000 nM
COc1cc(C(=O)O)c(F)cc1NS(=O)(=O)c1csc(-c2ccc([C@H]3CC[C@@H](C(C)C)CC3)c(F)c2C)n1 [Example 805]	< 100 nM
COc1cc(C(=O)O)c(F)cc1NS(=O)(=O)c1csc(-c2ccc([C@H]3CC[C@H](C(C)C)CC3)c(F)c2C)n1 [Example 806]	< 100 nM
COc1cc(C(=O)O)c(F)cc1NS(=O)(=O)c1csc(-c2ccc([C@H]3CC[C@@H](C(C)C)CC3)c(C)c2F)n1 [Example 807]	< 100 nM
COc1cc(C(=O)O)c(F)cc1NS(=O)(=O)c1csc(-c2ccc([C@H]3CC[C@H](C(C)C)CC3)c(C)c2F)n1 [Example 808]	< 100 nM
CCOc1c(C2=CCC(C(C)C)CC2)ccc(-c2nc(S(=O)(=O)Nc3cc(F)c(C(=O)O)cc3OC)cs2)c1F (stereo not drawn) [Example 809]	< 100 nM

Continued, values first:

IC50	Structure (SMILES)
< 100 nM	COc1cc(C(=O)O)c(F)cc1NS(=O)(=O)c1csc(-c2ccc(C3=CCC(C(F)(F)F)CC3)c(OC(C)C)c2F)n1 (stereo not drawn) [Example 810]
100 to 500 nM	COc1cc(C(=O)O)c(F)cc1NS(=O)(=O)c1csc(-c2ccc(C3CCC(C(F)(F)F)CC3)c(OC(C)C)c2F)n1 (stereo not drawn) [Example 811]
< 100 nM	COc1cc(C(=O)O)c(F)cc1NS(=O)(=O)c1csc(-c2ccc(C3CCC(C(F)(F)F)CC3)c(OC(C)C)c2F)n1 (stereo not drawn) [Example 812]
< 100 nM	COc1cc(C(=O)O)c(F)cc1NS(=O)(=O)c1csc(-c2ccc(C3=CCC(C(F)(F)F)CC3)c(C)c2F)n1 (stereo not drawn) [Example 813]
< 100 nM	CCOc1c(F)c(-c2nc(S(=O)(=O)Nc3cc(F)c(C(=O)O)cc3OC)cs2)ccc1[C@H]1CC[C@@H](C(F)(F)F)CC1 [Example 814]
100 to 500 nM	CCOc1c(F)c(-c2nc(S(=O)(=O)Nc3cc(F)c(C(=O)O)cc3OC)cs2)ccc1[C@H]1CC[C@H](C(F)(F)F)CC1 [Example 815]
< 100 nM	CCOc1c(C2=CCC(C(F)(F)F)CC2)ccc(-c2nc(S(=O)(=O)Nc3cc(F)c(C(=O)O)cc3OC)cs2)c1F (stereo not drawn) [Example 816]
